From the NIST ThermoML archive (doi:10.1021/acs.jced.7b00221)
± gives the expanded uncertainty stated by the source.

Experiment: xn = mol fraction of the nth substance listed
Details: 100 kPa, Liquid; for viscosity: Cone and plate viscometry; for mass density: Vibrating tube method

CCCCCCn1cc[n+](C)c1.O=[N+]([O-])c1cn[n-]c1 [1-hexyl-3-methylimidazolium 4-nitropyrazolide] + CCCCCCCCCCCCCC[P+](CCCCCC)(CCCCCC)CCCCCC.O=S(=O)([N-]S(=O)(=O)C(F)(F)F)C(F)(F)F
Details | mass density, x1 = 0.25 [kg/m3] | mass density, x1 = 0.5 [kg/m3] | mass density, x1 = 0.749 [kg/m3] | viscosity, x1 = 0.101 [mPa·s] | viscosity, x1 = 0.299 [mPa·s] | viscosity, x1 = 0.5 [mPa·s] | viscosity, x1 = 0.7 [mPa·s] | viscosity, x1 = 0.9 [mPa·s]
278.15 K | – | – | – | 1201 ± 160 | 1360 ± 180 | 1582 ± 220 | 2039 ± 280 | 2649 ± 380
283.15 K | 1081.8 ± 4 | 1090.7 ± 4 | 1105.6 ± 4 | 816 ± 110 | 914 ± 120 | 1045 ± 140 | 1290 ± 180 | 1540 ± 210
288.15 K | 1078.2 ± 4 | 1087.1 ± 4 | 1102 ± 4 | 570 ± 74 | 629 ± 82 | 707 ± 92 | 840 ± 110 | 935 ± 120
293.15 K | 1074.6 ± 4 | 1083.6 ± 4 | 1098.5 ± 4 | 410 ± 52 | 445 ± 57 | 492 ± 63 | 566 ± 73 | 597 ± 77
295.15 K | 1073.1 ± 4 | 1082.2 ± 4 | 1097.2 ± 4 | – | – | – | – | –
298.15 K | 1071 ± 4 | 1080.1 ± 4 | 1095.2 ± 4 | 302 ± 38 | 323 ± 41 | 352 ± 44 | 395 ± 50 | 400 ± 51
303.15 K | 1067.4 ± 4 | 1076.6 ± 4 | 1091.7 ± 4 | 228 ± 28 | 241 ± 30 | 259 ± 32 | 285 ± 36 | 278 ± 35
308.15 K | 1063.8 ± 4 | 1073.1 ± 4 | 1088.3 ± 4 | 175 ± 21 | 184 ± 23 | 195 ± 24 | 211 ± 26 | 200 ± 25
313.15 K | 1060.3 ± 4 | 1069.6 ± 4 | 1084.9 ± 4 | 138 ± 17 | 142 ± 17 | 150 ± 18 | 160 ± 20 | 149 ± 18
318.15 K | 1056.8 ± 4 | 1066.2 ± 4 | 1081.6 ± 4 | 110 ± 13 | 113 ± 14 | 118 ± 14 | 124 ± 15 | 113 ± 14
323.15 K | 1053.4 ± 4 | 1062.8 ± 4 | 1078.3 ± 4 | 90 ± 11 | 91 ± 11 | 94 ± 11 | 99 ± 12 | 89 ± 11
328.15 K | 1049.9 ± 4 | 1059.4 ± 4 | 1075 ± 4 | – | – | – | – | –
333.15 K | 1046.4 ± 4 | 1056 ± 4 | 1071.7 ± 4 | – | – | – | – | –
338.15 K | 1042.9 ± 4 | 1052.6 ± 4 | 1068.3 ± 4 | – | – | – | – | –
343.15 K | 1039.4 ± 4 | 1049.2 ± 4 | 1065 ± 4 | – | – | – | – | –
348.15 K | 1035.9 ± 4 | 1045.8 ± 4 | 1061.7 ± 4 | – | – | – | – | –
353.15 K | 1032.5 ± 4 | 1042.4 ± 4 | 1058.5 ± 4 | – | – | – | – | –

CCCCCCCC[P+](CC)(CC)CC.O=[N+]([O-])c1cn[n-]c1 [triethyloctylphosphonium 4-nitropyrazolide] + CCCCCC[n+]1ccn(C)c1.O=S(=O)([N-]S(=O)(=O)C(F)(F)F)C(F)(F)F
Details | mass density [kg/m3] | viscosity [mPa·s]
278.15 K, x1 = 0.126 | – | 267 ± 33
278.15 K, x1 = 0.25 | – | 358 ± 45
278.15 K, x1 = 0.499 | – | 680 ± 89
278.15 K, x1 = 0.75 | – | 1046 ± 140
278.15 K, x1 = 0.898 | – | 1242 ± 170
283.15 K, x1 = 0.126 | 1340 ± 12 | 191 ± 24
283.15 K, x1 = 0.25 | 1296.5 ± 12 | 251 ± 31
283.15 K, x1 = 0.499 | 1209.6 ± 12 | 456 ± 58
283.15 K, x1 = 0.75 | 1124.3 ± 12 | 682 ± 89
283.15 K, x1 = 0.898 | 1074.4 ± 12 | 804 ± 110
283.15 K, x1 = 1 | 1040.7 ± 12 | –
288.15 K, x1 = 0.126 | 1335.5 ± 12 | 140 ± 17
288.15 K, x1 = 0.25 | 1292.3 ± 12 | 180 ± 22
288.15 K, x1 = 0.499 | 1205.8 ± 12 | 314 ± 39
288.15 K, x1 = 0.75 | 1120.9 ± 12 | 457 ± 58
288.15 K, x1 = 0.898 | 1071.2 ± 12 | 535 ± 69
288.15 K, x1 = 1 | 1037.7 ± 12 | –
293.15 K, x1 = 0.126 | 1331.1 ± 12 | 106 ± 13
293.15 K, x1 = 0.25 | 1288.2 ± 12 | 133 ± 16
293.15 K, x1 = 0.499 | 1201.9 ± 12 | 223 ± 28
293.15 K, x1 = 0.75 | 1117.5 ± 12 | 317 ± 40
293.15 K, x1 = 0.898 | 1068 ± 12 | 369 ± 47
293.15 K, x1 = 1 | 1034.6 ± 12 | –
295.15 K, x1 = 0.126 | 1329.4 ± 12 | –
295.15 K, x1 = 0.25 | 1286.5 ± 12 | –
295.15 K, x1 = 0.499 | 1200.4 ± 12 | –
295.15 K, x1 = 0.75 | 1116.1 ± 12 | –
295.15 K, x1 = 0.898 | 1066.8 ± 12 | –
295.15 K, x1 = 1 | 1033.4 ± 12 | –
298.15 K, x1 = 0.126 | 1326.7 ± 12 | 82 ± 10
298.15 K, x1 = 0.25 | 1284.1 ± 12 | 102 ± 12
298.15 K, x1 = 0.499 | 1198.2 ± 12 | 164 ± 20
298.15 K, x1 = 0.75 | 1114.1 ± 12 | 227 ± 28
298.15 K, x1 = 0.898 | 1064.8 ± 12 | 263 ± 33
298.15 K, x1 = 1 | 1031.5 ± 12 | –
303.15 K, x1 = 0.126 | 1322.4 ± 12 | 66 ± 8
303.15 K, x1 = 0.25 | 1280 ± 12 | 79 ± 10
303.15 K, x1 = 0.499 | 1194.5 ± 12 | 124 ± 15
303.15 K, x1 = 0.75 | 1110.7 ± 12 | 168 ± 21
303.15 K, x1 = 0.898 | 1061.7 ± 12 | 192 ± 24
303.15 K, x1 = 1 | 1028.5 ± 12 | –
308.15 K, x1 = 0.126 | 1318.1 ± 12 | 53 ± 6
308.15 K, x1 = 0.25 | 1275.9 ± 12 | 63 ± 8
308.15 K, x1 = 0.499 | 1190.9 ± 12 | 96 ± 12
308.15 K, x1 = 0.75 | 1107.5 ± 12 | 127 ± 15
308.15 K, x1 = 0.898 | 1058.6 ± 12 | 145 ± 18
308.15 K, x1 = 1 | 1025.5 ± 12 | –
313.15 K, x1 = 0.126 | 1313.8 ± 12 | –
313.15 K, x1 = 0.25 | 1271.8 ± 12 | 52 ± 6
313.15 K, x1 = 0.499 | 1187.2 ± 12 | 73 ± 9
313.15 K, x1 = 0.75 | 1104.2 ± 12 | 99 ± 12
313.15 K, x1 = 0.898 | 1055.5 ± 12 | 110 ± 13
313.15 K, x1 = 1 | 1022.6 ± 12 | –
318.15 K, x1 = 0.126 | 1309.6 ± 12 | –
318.15 K, x1 = 0.25 | 1267.7 ± 12 | –
318.15 K, x1 = 0.499 | 1183.5 ± 12 | 59 ± 7
318.15 K, x1 = 0.75 | 1100.9 ± 12 | 77 ± 9
318.15 K, x1 = 0.898 | 1052.5 ± 12 | 83 ± 10
318.15 K, x1 = 1 | 1019.6 ± 12 | –
323.15 K, x1 = 0.126 | 1305.4 ± 12 | –
323.15 K, x1 = 0.25 | 1263.7 ± 12 | –
323.15 K, x1 = 0.499 | 1179.9 ± 12 | –
323.15 K, x1 = 0.75 | 1097.6 ± 12 | 62 ± 7
323.15 K, x1 = 0.898 | 1049.4 ± 12 | 67 ± 8
323.15 K, x1 = 1 | 1016.7 ± 12 | –
328.15 K, x1 = 0.126 | 1301.2 ± 12 | –
328.15 K, x1 = 0.25 | 1259.6 ± 12 | –
328.15 K, x1 = 0.499 | 1176.2 ± 12 | –
328.15 K, x1 = 0.75 | 1094.3 ± 12 | –
328.15 K, x1 = 0.898 | 1046.3 ± 12 | –
328.15 K, x1 = 1 | 1013.8 ± 12 | –
333.15 K, x1 = 0.126 | 1297 ± 12 | –
333.15 K, x1 = 0.25 | 1255.5 ± 12 | –
333.15 K, x1 = 0.499 | 1172.6 ± 12 | –
333.15 K, x1 = 0.75 | 1091.1 ± 12 | –
333.15 K, x1 = 0.898 | 1043.3 ± 12 | –
333.15 K, x1 = 1 | 1010.8 ± 12 | –
338.15 K, x1 = 0.126 | 1292.8 ± 12 | –
338.15 K, x1 = 0.25 | 1251.5 ± 12 | –
338.15 K, x1 = 0.499 | 1169 ± 12 | –
338.15 K, x1 = 0.75 | 1087.8 ± 12 | –
338.15 K, x1 = 0.898 | 1040.2 ± 12 | –
338.15 K, x1 = 1 | 1007.9 ± 12 | –
343.15 K, x1 = 0.126 | 1288.7 ± 12 | –
343.15 K, x1 = 0.25 | 1247.5 ± 12 | –
343.15 K, x1 = 0.499 | 1165.3 ± 12 | –
343.15 K, x1 = 0.75 | 1084.6 ± 12 | –
343.15 K, x1 = 0.898 | 1037.2 ± 12 | –
343.15 K, x1 = 1 | 1005 ± 12 | –
348.15 K, x1 = 0.126 | 1284.5 ± 12 | –
348.15 K, x1 = 0.25 | 1243.5 ± 12 | –
348.15 K, x1 = 0.499 | 1161.7 ± 12 | –
348.15 K, x1 = 0.75 | 1081.3 ± 12 | –
348.15 K, x1 = 0.898 | 1034.1 ± 12 | –
348.15 K, x1 = 1 | 1002.1 ± 12 | –
353.15 K, x1 = 0.126 | 1280.3 ± 12 | –
353.15 K, x1 = 0.25 | 1239.5 ± 12 | –
353.15 K, x1 = 0.499 | 1158.1 ± 12 | –
353.15 K, x1 = 0.75 | 1078.1 ± 12 | –
353.15 K, x1 = 0.898 | 1031.1 ± 12 | –
353.15 K, x1 = 1 | 999.2 ± 12 | –
